ChEMBL document CHEMBL3885861, “Open TG-GATES”

Species on record: Rattus norvegicus
Assay: Open TG-GATES - Regimen: Single
Assay type: toxicity, organism-based, Sprague-Dawley
Design: regimen Single, gender Male, age 6 weeks
Settings: in vivo, po, route gavage; for gamma-GTP / ALP / ALT / AST / BUN / CRE / Ca / Cl / DBIL / GLC / IP / K / LDH / Na / PL / RALB / TBIL / TC / TG / TP: tissue Plasma; for APTT / Bas / Eos / Fbg / Hb / Ht / Lym / MCH / MCHC / MCV / Mono / Neu / PT / Plat / RBC / Ret: tissue Blood; for KIDNEY_L / KIDNEY_R / KIDNEY_TOTAL: tissue Kidney; for LIVER: tissue Liver
[1] = 100 mg/kg, 24 h, dose level Low

With `COc1ccc2[nH]c([S+]([O-])Cc3ncc(C)c(OC)c3C)nc2c1` (centres undefined) [OMEPRAZOLE] the gamma-GTP (0 mg/kg, 24 h, dose level Control) was 1.4 IU/L, the TERMINAL_BW (100 mg/kg, 3 h, dose level Low) was 221.4 g and the APTT (100 mg/kg, 3 h, dose level Low) was 18.4 s. The Bas (100 mg/kg, 3 h, dose level Low) was 0%, the Eos (100 mg/kg, 3 h, dose level Low) was 1.2% and the Fbg (100 mg/kg, 3 h, dose level Low) was 209.8 mg/dL. For the same molecule, the Hb (100 mg/kg, 3 h, dose level Low) was 12.8 g/dL, the Ht (100 mg/kg, 3 h, dose level Low) was 37.6% and the Lym (100 mg/kg, 3 h, dose level Low) was 77.2%. For the same molecule, the MCH (100 mg/kg, 3 h, dose level Low) was 21.2 pg, the MCHC (100 mg/kg, 3 h, dose level Low) was 34.1% and the MCV (100 mg/kg, 3 h, dose level Low) was 62.2 fL. It also gave a Mono (100 mg/kg, 3 h, dose level Low) of 3.4%, a Neu (100 mg/kg, 3 h, dose level Low) of 18% and a PT (100 mg/kg, 3 h, dose level Low) of 12.6 s. It also gave a Plat (100 mg/kg, 3 h, dose level Low) of 122.2 x10_4/uL, an RBC (100 mg/kg, 3 h, dose level Low) of 603.6 x10_4/ul and a Ret (100 mg/kg, 3 h, dose level Low) of 6.9%. The KIDNEY_L (100 mg/kg, 3 h, dose level Low) was 1 g, the KIDNEY_R (100 mg/kg, 3 h, dose level Low) was 1 g and the KIDNEY_TOTAL (100 mg/kg, 3 h, dose level Low) was 2 g. It also gave an LIVER (100 mg/kg, 3 h, dose level Low) of 10.2 g, an ALP (100 mg/kg, 3 h, dose level Low) of 983 IU/L and an ALT (100 mg/kg, 3 h, dose level Low) of 33.8 IU/L. The AST (100 mg/kg, 3 h, dose level Low) was 73.6 IU/L, the BUN (100 mg/kg, 3 h, dose level Low) was 11.6 mg/dL and the CRE (100 mg/kg, 3 h, dose level Low) was 0.4 mg/dL. For the same molecule, the Ca (100 mg/kg, 3 h, dose level Low) was 10.6 mg/dL, the Cl (100 mg/kg, 3 h, dose level Low) was 100.6 meq/L and the DBIL (100 mg/kg, 3 h, dose level Low) was 0.078 mg/dL. For the same molecule, the GLC (100 mg/kg, 3 h, dose level Low) was 201.4 mg/dL, the IP (100 mg/kg, 3 h, dose level Low) was 9.1 mg/dL and the K (100 mg/kg, 3 h, dose level Low) was 4 meq/L. For the same molecule, the LDH (100 mg/kg, 3 h, dose level Low) was 180.6 IU/L, the Na (100 mg/kg, 3 h, dose level Low) was 140.2 meq/L and the PL (100 mg/kg, 3 h, dose level Low) was 144.8 mg/dL. It also gave an RALB (100 mg/kg, 3 h, dose level Low) of 3.3 g/dL, a TBIL (100 mg/kg, 3 h, dose level Low) of 0.1 mg/dL and a TC (100 mg/kg, 3 h, dose level Low) of 74.2 mg/dL. The TG (100 mg/kg, 3 h, dose level Low) was 86.6 mg/dL, the TP (100 mg/kg, 3 h, dose level Low) was 5.4 g/dL and the gamma-GTP (100 mg/kg, 3 h, dose level Low) was 0.8 IU/L. It also gave a TERMINAL_BW (100 mg/kg, 6 h, dose level Low) of 217.8 g, an APTT (100 mg/kg, 6 h, dose level Low) of 19.2 s and a Bas (100 mg/kg, 6 h, dose level Low) of 0%. It also gave an Eos (100 mg/kg, 6 h, dose level Low) of 1%, a Fbg (100 mg/kg, 6 h, dose level Low) of 217 mg/dL and a Hb (100 mg/kg, 6 h, dose level Low) of 13.2 g/dL. For the same molecule, the Ht (100 mg/kg, 6 h, dose level Low) was 38.6%, the Lym (100 mg/kg, 6 h, dose level Low) was 76% and the MCH (100 mg/kg, 6 h, dose level Low) was 21.1 pg. For the same molecule, the MCHC (100 mg/kg, 6 h, dose level Low) was 34.2%, the MCV (100 mg/kg, 6 h, dose level Low) was 61.7 fL and the Mono (100 mg/kg, 6 h, dose level Low) was 4%. The Neu (100 mg/kg, 6 h, dose level Low) was 18.8%, the PT (100 mg/kg, 6 h, dose level Low) was 12.9 s and the Plat (100 mg/kg, 6 h, dose level Low) was 114.2 x10_4/uL. The RBC (100 mg/kg, 6 h, dose level Low) was 626.4 x10_4/ul, the Ret (100 mg/kg, 6 h, dose level Low) was 6.5% and the KIDNEY_L (100 mg/kg, 6 h, dose level Low) was 1 g. The KIDNEY_R (100 mg/kg, 6 h, dose level Low) was 1 g, the KIDNEY_TOTAL (100 mg/kg, 6 h, dose level Low) was 2 g and the LIVER (100 mg/kg, 6 h, dose level Low) was 10.1 g. It also gave an ALP (100 mg/kg, 6 h, dose level Low) of 849 IU/L, an ALT (100 mg/kg, 6 h, dose level Low) of 32 IU/L and an AST (100 mg/kg, 6 h, dose level Low) of 65 IU/L. The BUN (100 mg/kg, 6 h, dose level Low) was 9.4 mg/dL, the CRE (100 mg/kg, 6 h, dose level Low) was 0.4 mg/dL and the Ca (100 mg/kg, 6 h, dose level Low) was 10.6 mg/dL. The Cl (100 mg/kg, 6 h, dose level Low) was 102.4 meq/L, the DBIL (100 mg/kg, 6 h, dose level Low) was 0.074 mg/dL and the GLC (100 mg/kg, 6 h, dose level Low) was 197.8 mg/dL. It also gave an IP (100 mg/kg, 6 h, dose level Low) of 9.4 mg/dL, a K (100 mg/kg, 6 h, dose level Low) of 4 meq/L and an LDH (100 mg/kg, 6 h, dose level Low) of 219.6 IU/L. The Na (100 mg/kg, 6 h, dose level Low) was 141 meq/L, the PL (100 mg/kg, 6 h, dose level Low) was 159.6 mg/dL and the RALB (100 mg/kg, 6 h, dose level Low) was 3.3 g/dL. For the same molecule, the TBIL (100 mg/kg, 6 h, dose level Low) was 0.1 mg/dL, the TC (100 mg/kg, 6 h, dose level Low) was 86.2 mg/dL and the TG (100 mg/kg, 6 h, dose level Low) was 83.4 mg/dL. It also gave a TP (100 mg/kg, 6 h, dose level Low) of 5.4 g/dL, a gamma-GTP (100 mg/kg, 6 h, dose level Low) of 1 IU/L and a TERMINAL_BW (100 mg/kg, 9 h, dose level Low) of 217.8 g. It also gave an APTT (100 mg/kg, 9 h, dose level Low) of 20.7 s, a Bas (100 mg/kg, 9 h, dose level Low) of 0% and an Eos (100 mg/kg, 9 h, dose level Low) of 0.8%. It also gave a Fbg (100 mg/kg, 9 h, dose level Low) of 217.6 mg/dL, a Hb (100 mg/kg, 9 h, dose level Low) of 12.9 g/dL and a Ht (100 mg/kg, 9 h, dose level Low) of 37.5%. It also gave a Lym (100 mg/kg, 9 h, dose level Low) of 76.8%, an MCH (100 mg/kg, 9 h, dose level Low) of 20.9 pg and an MCHC (100 mg/kg, 9 h, dose level Low) of 34.5%. For the same molecule, the MCV (100 mg/kg, 9 h, dose level Low) was 60.6 fL, the Mono (100 mg/kg, 9 h, dose level Low) was 3.4% and the Neu (100 mg/kg, 9 h, dose level Low) was 18.4%. The PT (100 mg/kg, 9 h, dose level Low) was 12.8 s, the Plat (100 mg/kg, 9 h, dose level Low) was 130.5 x10_4/uL and the RBC (100 mg/kg, 9 h, dose level Low) was 620.2 x10_4/ul. For the same molecule, the Ret (100 mg/kg, 9 h, dose level Low) was 6.8%, the KIDNEY_L (100 mg/kg, 9 h, dose level Low) was 1 g and the KIDNEY_R (100 mg/kg, 9 h, dose level Low) was 1 g. The KIDNEY_TOTAL (100 mg/kg, 9 h, dose level Low) was 2.1 g, the LIVER (100 mg/kg, 9 h, dose level Low) was 9.7 g and the ALP (100 mg/kg, 9 h, dose level Low) was 826.2 IU/L. For the same molecule, the ALT (100 mg/kg, 9 h, dose level Low) was 28.8 IU/L, the AST (100 mg/kg, 9 h, dose level Low) was 56.8 IU/L and the BUN (100 mg/kg, 9 h, dose level Low) was 9 mg/dL. It also gave a CRE (100 mg/kg, 9 h, dose level Low) of 0.3 mg/dL, a Ca (100 mg/kg, 9 h, dose level Low) of 10.3 mg/dL and a Cl (100 mg/kg, 9 h, dose level Low) of 101 meq/L. The DBIL (100 mg/kg, 9 h, dose level Low) was 0.066 mg/dL, the GLC (100 mg/kg, 9 h, dose level Low) was 197.4 mg/dL and the IP (100 mg/kg, 9 h, dose level Low) was 10.1 mg/dL. For the same molecule, the K (100 mg/kg, 9 h, dose level Low) was 4 meq/L, the LDH (100 mg/kg, 9 h, dose level Low) was 171.6 IU/L and the Na (100 mg/kg, 9 h, dose level Low) was 140 meq/L. It also gave a PL (100 mg/kg, 9 h, dose level Low) of 135.8 mg/dL, an RALB (100 mg/kg, 9 h, dose level Low) of 3.3 g/dL and a TBIL (100 mg/kg, 9 h, dose level Low) of 0.1 mg/dL. The TC (100 mg/kg, 9 h, dose level Low) was 71.2 mg/dL, the TG (100 mg/kg, 9 h, dose level Low) was 68.6 mg/dL and the TP (100 mg/kg, 9 h, dose level Low) was 5.4 g/dL. For the same molecule, the gamma-GTP (100 mg/kg, 9 h, dose level Low) was 1 IU/L, the TERMINAL_BW [1] was 234.1 g and the APTT [1] was 19.3 s. It also gave a Bas [1] of 0%, an Eos [1] of 1% and a Fbg [1] of 216.2 mg/dL. It also gave a Hb [1] of 12.8 g/dL, a Ht [1] of 37.6% and a Lym [1] of 84.4%. For the same molecule, the MCH [1] was 21.2 pg, the MCHC [1] was 34% and the MCV [1] was 62.2 fL. It also gave a Mono [1] of 2.4%, a Neu [1] of 12% and a PT [1] of 12.6 s. For the same molecule, the Plat [1] was 130.1 x10_4/uL, the RBC [1] was 604.8 x10_4/ul and the Ret [1] was 6.9%. For the same molecule, the KIDNEY_L [1] was 1 g, the KIDNEY_R [1] was 1.1 g and the KIDNEY_TOTAL [1] was 2.1 g. It also gave an LIVER [1] of 11.2 g, an ALP [1] of 851.2 IU/L and an ALT [1] of 28.4 IU/L. The AST [1] was 57.8 IU/L, the BUN [1] was 15.8 mg/dL and the CRE [1] was 0.4 mg/dL. It also gave a Ca [1] of 10.6 mg/dL, a Cl [1] of 101 meq/L and a DBIL [1] of 0.092 mg/dL. It also gave a GLC [1] of 209.4 mg/dL, an IP [1] of 9.3 mg/dL and a K [1] of 4.4 meq/L. The LDH [1] was 195.8 IU/L, the Na [1] was 140.2 meq/L and the PL [1] was 145.4 mg/dL. For the same molecule, the RALB [1] was 3.2 g/dL, the TBIL [1] was 0.1 mg/dL and the TC [1] was 77.8 mg/dL. The TG [1] was 89.8 mg/dL and the TP [1] was 5.3 g/dL.
